Experiment [1] addresses T1, Substance-K receptor (Rattus norvegicus, UniProt P16610).
T1 sequence (P16610 whole entry): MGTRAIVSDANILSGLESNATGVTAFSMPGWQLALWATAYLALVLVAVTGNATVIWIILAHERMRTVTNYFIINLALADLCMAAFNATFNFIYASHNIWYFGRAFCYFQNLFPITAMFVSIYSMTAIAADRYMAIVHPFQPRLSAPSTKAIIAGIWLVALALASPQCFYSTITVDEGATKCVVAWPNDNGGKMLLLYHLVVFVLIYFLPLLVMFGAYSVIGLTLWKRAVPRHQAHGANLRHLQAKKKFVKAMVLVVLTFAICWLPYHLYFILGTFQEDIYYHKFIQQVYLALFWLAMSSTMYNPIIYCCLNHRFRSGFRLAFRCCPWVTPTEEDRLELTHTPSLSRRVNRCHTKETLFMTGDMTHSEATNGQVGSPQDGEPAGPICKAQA
The experiment can be described thus: Binding affinity against tachykinin receptor 2 from rat colon.

The target of experiment [2] is T2, Substance-K receptor (Homo sapiens, UniProt P21452).
T2 sequence (P21452 whole entry): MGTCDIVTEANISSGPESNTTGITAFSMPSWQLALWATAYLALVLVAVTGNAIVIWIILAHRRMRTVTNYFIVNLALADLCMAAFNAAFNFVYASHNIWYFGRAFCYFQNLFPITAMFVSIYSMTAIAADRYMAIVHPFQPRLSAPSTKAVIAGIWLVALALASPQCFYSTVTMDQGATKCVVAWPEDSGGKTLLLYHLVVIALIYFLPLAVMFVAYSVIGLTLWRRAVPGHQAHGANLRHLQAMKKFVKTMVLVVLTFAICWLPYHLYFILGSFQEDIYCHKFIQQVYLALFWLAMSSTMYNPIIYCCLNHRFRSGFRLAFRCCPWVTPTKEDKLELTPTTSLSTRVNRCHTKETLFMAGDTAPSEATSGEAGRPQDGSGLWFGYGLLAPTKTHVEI
Kind of experiment: The compound was tested for binding affinity against Tachykinin receptor 2 from human expressed in CHO cells. The format is cell-based.

Another experiment has as its target Substance-P receptor (Cavia porcellus, UniProt P30547). Kind of experiment: The compound was tested for binding affinity against Tachykinin receptor 1 from guinea pig trachea.
The target of a further experiment is T3, Neuromedin-K receptor (Cavia porcellus, UniProt P30098).
T3 sequence (P30098 whole entry): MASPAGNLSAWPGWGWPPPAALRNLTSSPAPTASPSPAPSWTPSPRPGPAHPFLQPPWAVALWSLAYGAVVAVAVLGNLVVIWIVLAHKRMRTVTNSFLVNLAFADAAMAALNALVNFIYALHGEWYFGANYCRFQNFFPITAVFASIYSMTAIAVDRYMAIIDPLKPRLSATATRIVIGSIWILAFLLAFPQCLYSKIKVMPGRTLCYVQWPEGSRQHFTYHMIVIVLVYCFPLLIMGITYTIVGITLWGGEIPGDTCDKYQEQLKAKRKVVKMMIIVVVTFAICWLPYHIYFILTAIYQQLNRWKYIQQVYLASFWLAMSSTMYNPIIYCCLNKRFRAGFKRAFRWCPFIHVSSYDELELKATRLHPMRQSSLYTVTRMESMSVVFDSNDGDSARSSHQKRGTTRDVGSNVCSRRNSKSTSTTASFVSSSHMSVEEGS
The experiment can be described thus: The compound was tested for binding affinity against Tachykinin receptor 3 from guinea pig cerebral cortex. The experiment is classed as tissue-based.

In experiment [3] the target is T4, Substance-K receptor (Cavia porcellus, UniProt Q64077).
T4 sequence (Q64077 whole entry): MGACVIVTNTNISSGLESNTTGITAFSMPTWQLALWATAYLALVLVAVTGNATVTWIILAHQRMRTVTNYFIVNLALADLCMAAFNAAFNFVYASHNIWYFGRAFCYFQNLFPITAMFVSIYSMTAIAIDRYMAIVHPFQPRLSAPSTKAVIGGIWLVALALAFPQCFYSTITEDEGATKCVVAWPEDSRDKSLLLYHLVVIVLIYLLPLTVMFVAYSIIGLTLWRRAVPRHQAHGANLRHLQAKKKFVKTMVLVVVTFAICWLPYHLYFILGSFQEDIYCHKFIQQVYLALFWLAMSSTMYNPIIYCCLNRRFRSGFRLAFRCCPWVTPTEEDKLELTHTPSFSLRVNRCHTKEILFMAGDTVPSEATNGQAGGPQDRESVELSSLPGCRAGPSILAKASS
Kind of experiment: The compound was tested for binding affinity against Tachykinin receptor 2 from guinea pig trachea.

Broadly, the Ki is a dissociation constant, usually derived from enzyme kinetics or from competition with a known ligand. A lower Ki goes with higher affinity.

Chain of Substance-P receptor (P30547 whole entry): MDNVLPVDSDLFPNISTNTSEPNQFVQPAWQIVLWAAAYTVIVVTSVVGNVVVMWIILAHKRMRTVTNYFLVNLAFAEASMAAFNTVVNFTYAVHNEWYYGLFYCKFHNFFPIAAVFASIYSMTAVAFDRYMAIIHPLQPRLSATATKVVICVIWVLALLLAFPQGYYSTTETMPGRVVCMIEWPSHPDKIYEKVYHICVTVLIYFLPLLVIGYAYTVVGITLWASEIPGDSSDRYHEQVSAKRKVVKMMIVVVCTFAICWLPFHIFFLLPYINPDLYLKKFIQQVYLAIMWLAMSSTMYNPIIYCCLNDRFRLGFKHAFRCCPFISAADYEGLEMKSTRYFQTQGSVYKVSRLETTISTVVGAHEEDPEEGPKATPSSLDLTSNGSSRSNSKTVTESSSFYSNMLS

The compound `O=C1OC2(CCN(CCc3c[nH]c4ccc(F)cc34)CC2)CN1Cc1ccc(F)cc1F` had a Ki at Substance-K receptor [1] of 6.31 nM.

As to `O=C1OC2(CCN(CCc3c[nH]c4ccc(F)cc34)CC2)CN1Cc1ccc(F)cc1`, the affinity on Substance-K receptor [1] corresponds to a Ki of 3.98 nM.

Compound `O=C1OC2(CCN(CCc3c[nH]c4ccc(F)cc34)CC2)CN1C(c1ccccc1)c1ccccc1` gave a Ki on Substance-K receptor [1] of 20 nM.

In turn, `COc1ccc(CN2CC3(CCN(CCc4c[nH]c5ccc(F)cc45)CC3)OC2=O)cc1` gave an inhibition constant (Ki) at Substance-K receptor [1] of 3.98 nM.

As for `O=C1OC2(CCN(CCc3c[nH]c4ccc(F)cc34)CC2)CN1Cc1ccccc1`, the Ki is 1.26 nM at Substance-K receptor [1]; 7.94 nM at Substance-K receptor [2]; greater than 10000 nM at Substance-P receptor; 79400 nM on Neuromedin-K receptor; 2.51 nM at Substance-K receptor [3].

In the case of `CC(c1ccccc1)N1CC2(CCN(CCc3c[nH]c4ccc(F)cc34)CC2)OC1=O` (configuration not stated), the affinity on Substance-K receptor [1] corresponds to a Ki of 20 nM.

On Substance-K receptor [1], `O=C1OC2(CCN(CCc3c[nH]c4ccc(F)cc34)CC2)CN1C(=O)c1ccccc1` gave a Ki of 2.51 nM.

`Cc1ccccc1CN1CC2(CCN(CCc3c[nH]c4ccc(F)cc34)CC2)OC1=O` had a Ki at Substance-K receptor [1] of 12.6 nM.

On to `CC(=O)N(Cc1ccccc1)CC1(O)CCN(CCc2c[nH]c3ccc(F)cc23)CC1`, for which, at Substance-K receptor [1], the affinity corresponds to a Ki of 1.58 nM.

On to `O=C1OC2(CCN(CCc3c[nH]c4ccc(F)cc34)CC2)CN1Cc1cccc(F)c1`, for which the Ki at Substance-K receptor [1] is 1.58 nM.

On Substance-K receptor [1], `Cc1ccc(S(=O)(=O)N2CC3(CCN(CCc4c[nH]c5ccc(F)cc45)CC3)OC2=O)cc1` showed a Ki of 5.01 nM.

Regarding `Cc1ccc(CN2CC3(CCN(CCc4c[nH]c5ccc(F)cc45)CC3)OC2=O)cc1`, the affinity at Substance-K receptor [1], expressed as Ki, was 1 nM.

As to `O=C1OC2(CCN(CCc3c[nH]c4ccc(F)cc34)CC2)CN1Cc1cccnc1`, on Substance-K receptor [1], the Ki was 200 nM.

`Fc1ccc2[nH]cc(CCN3CCC4(CC3)CCN(Cc3ccccc3)C4)c2c1`: on Substance-K receptor [1], the Ki is 6.31 nM.

In turn, `O=C1OC2(CCN(CCc3c[nH]c4ccc(F)cc34)CC2)CN1Cc1ccc(Cl)cc1` gave an inhibition constant Ki at Substance-K receptor [1] of 10 nM.

On Substance-K receptor [1], `COC(=O)c1cccc(CN2CC3(CCN(CCc4c[nH]c5ccc(F)cc45)CC3)OC2=O)c1` showed a Ki of 79.4 nM.

`O=C1OC2(CCN(CCc3c[nH]c4ccc(F)cc34)CC2)CN1Cc1ccc2ccccc2c1` showed a Ki at Substance-K receptor [1] of 20 nM.

The compound `O=C1NC2(CCN(CCc3c[nH]c4ccc(F)cc34)CC2)CN1Cc1ccccc1` showed a Ki at Substance-K receptor [1] of 1.26 nM.

As for `O=C1OC2(CCN(CCc3c[nH]c4ccc(F)cc34)CC2)CN1Cc1cccc2ccccc12`, the affinity on Substance-K receptor [1], expressed as Ki, was 7.94 nM.

For `O=C1OC2(CCN(CCc3c[nH]c4ccc(F)cc34)CC2)CN1Cc1ccncc1`, the Ki at Substance-K receptor [1] was 100 nM.

Take `CN1CC2(CCN(CCc3c[nH]c4ccc(F)cc34)CC2)OC1=O`: on Substance-K receptor [1], the Ki is 1580 nM.

For `N#Cc1ccc(CN2CC3(CCN(CCc4c[nH]c5ccc(F)cc45)CC3)OC2=O)cc1`, the Ki on Substance-K receptor [1] was 100 nM.

Compound `O=C1OC2(CCN(CCc3c[nH]c4ccc(F)cc34)CC2)CN1CCc1ccccc1` had a Ki at Substance-K receptor [1] of 10 nM.

`O=C1CC2(CCN(CCc3c[nH]c4ccc(F)cc34)CC2)CN1Cc1ccccc1` showed a Ki on Substance-K receptor [1] of 1.26 nM.

For `O=C1OC2(CCN(CCc3c[nH]c4ccc(F)cc34)CC2)CN1Cc1ccccn1`, at Substance-K receptor [1], the affinity corresponds to a Ki of 15.8 nM.

`O=C1NC2(CCN(CCc3c[nH]c4ccc(F)cc34)CC2)C(=O)N1Cc1ccccc1` had a Ki on Substance-K receptor [1] of 126 nM.

Take `OC1(CNCc2ccccc2)CCN(CCc2c[nH]c3ccc(F)cc23)CC1`: the Ki on Substance-K receptor [1] is 100 nM.

Compound `O=C1CC2(CCN(CCc3c[nH]c4ccc(F)cc34)CC2)NN1Cc1ccccc1` gave a Ki on Substance-K receptor [1] of 10 nM.

(Values after ChEMBL document CHEMBL1128556, “New spiropiperidines as potent and selective non-peptide tachykinin NK2 receptor antagonists” (J Med Chem, 1995).)
